According to patent US10827695B2, “Process for in vitro flowering in Crocus sativus L” (Council of Scientific & Industrial Research, priority 2015, dated 2020):

Tested on: saffron crocus (Crocus sativus L.) corm explants
Test: in-vitro induction of flowering / proliferation of floral primordia in corm explants on MS medium with PGR
Assay type: cell-based
Procedure: Accordingly, the incubation is carried out at a temperature in the range of 9° C. to 30° C. preferably at a temperature in the range of 9° C. to 21° C., with RH (relative humidity) in the range of 50 to 90%, and photoperiod of about 16 hours provided by 1/2/4 cool fluorescent tubes (Philips, 40 W), giving about 11.7 ? mol m−^2 s^−1 PPF (Photosynthetic Photon Flux) i.e. ˜866 lux (illuminance) each followed by 8-h dark period. The cultures are maintained for 4-5 weeks in the medium at above incubation conditions during which 80% of the culture remain sterile and show sprouting. They are then transferred to fresh MS medium of same composition and incubated under sterile conditions for about 1 to 2 weeks till the sprouted buds are about 8 cm long. The sprouted buds are slit vertically and incubated in MS medium of same composition for another 2 to 3 weeks under the same conditions. This helps the bud to open and grow further (FIG. 1 & FIG. 2).
(§1) Corms weighing ˜10 gm were used for the experiments. Explants were prepared by trimming the sides and base of the corms and making small cubes of about 1 cm^3 containing the dormant or slightly sprouted apical buds on 22 Oct. 2014.
These explants were surface sterilized by washing them with neutral Detergent Labolene for 10 min followed by washing with 15% Savlon for 10 minutes. Further, these explants were treated with 1% Bavistin (BASF) for 30 minutes followed by 5 min followed by 0.08% mercuric chloride treatment in a sterile work station (Laminar Air Flow cabinet). After each treatment the explants were washed with sterile distilled water.
Murashige and Skoog Medium supplemented with 6 benzyl amino purine (BAP) (1.0 mg/l) was used for culture. The media made in distilled water was further constituted with 3% sucrose and 0.6% agar. The final pH was adjusted at 5.7. The media was autoclaved at 121° C. at 15 lbs pressure for 20 minutes.
The cultures were maintained for 5 weeks in the medium at 25±2° C., light intensity 16-h light (at 11.7 ? mol m^−2s^−1) followed by 8-h dark period.
The sterile sprouted buds of 5-7 cms length were transferred to fresh medium of same composition after making a vertical slit on the sprouting bud. It helps the bud to open and grow further.
They were again incubated for 3 weeks under the same incubation conditions.
as §1, with “2014. One part of such samples was used for this set-up, while other was reserved for set ^-up of Example 3.” for “2014.”
The explants were surface sterilized by passing it through Detergent Labolene for 10 min followed by washing with 15% Savlon for 10 minutes. Further, the cubed explants were treated with 1% Bavistin (BASF) for 30 minutes followed by 5 min 0.08% mercuric chloride treatment in a sterile work station (Laminar Air Flow cabinet). After each treatment the explants were washed with sterile distilled water.
The cultures were maintained for 5 weeks in the medium at 25±2° C. Light intensity 16-h light (at 11.7 ? mol m^−2 s^−1) followed by 8-h dark period.
The sterile sprouted buds of 5-7 cm length were transferred to fresh medium of same composition after making a vertical slit on the sprouting bud.
The explants were surface sterilized by treating them with neutral detergent Labolene for 15 min followed by washing with 20% Savlon for 5 minutes. […]

Row | SMILES | flowering in cultures (Example 1, MS medium with 1.0 mg/l, explants prepared 22 Oct. 2014, observed by Nov. 5, 2014 (natural flowering season)) | flowering in cultures maintained on fresh medium (Example 2, MS medium with 1.0 mg/l, until May 2015) | initiation of flowering in culture (Example 2, MS medium with 1.0 mg/l, until late December 2014 (beyond natural flowering period)) | flowering in cultures (Example 3, MS medium with 0.01, 0.05 and 0.1 mg/l, by last week of December 2014) | flowering in cultures maintained on fresh medium (Example 3, MS medium with 0.01, 0.05 and 0.1 mg/l, till May 2015)
1 | c1ccc(CNc2ncnc3nc[nH]c23)cc1 [BAP, 6-benzylaminopurine] | Flowering was observed | flowering was observed | Initiation of flowering was observed |  | 
2 | O=C(Nc1ccccc1)Nc1cnns1 [TDZ, thidiazuron] |  |  |  | Flowering was observed | flowering was observed
